# US7692030B2, “Conjugates of artemisinin-related endoperoxides and hydrazone derivatives for the treatment of cancer” (University of Washington, priority 2006, dated 2010)
# How the values were obtained:
# human leukemia cells = details: cited from earlier work
# [1] = test system: DAOY medulloblastoma cells; assay: DAOY medulloblastoma cells, MTT assay and light microscopy; type: cell-based; details: after 24 h treatment; each treatment had holo-Tf (20 μg/well)
# Procedure: The compound ART-Phe-Sal was tested on DAOY medulloblastoma cells using the MTT assay. DAOY Medulloblastoma cells (5,000 cells/200 μL) was seeded on a 96 well plate and incubated for 24 h at 37° C. Cell culture medium was removed after 24 h and 150 μL of medium with treatment was added. Each experimental treatment had holo-Tf (20 μg/well). Treatment assay was viewed under light microscope after 24 h.
# Treatment medium was removed after 48 h, and 100 μL of cell medium was added. MTT Reagent (10 μL, 12 mM) was added to each well. This solution was incubated at 37° C. for 4 h. Isopropanol (100 μL) was added to each well to lyse the cells, which were then incubated at 4° C. for 30 m. After incubation each well was plunged (3×200 μL) to ensure the cells were lysed. The incubated medium with MTT reagent was then centrifuged at 13,000 RPM in an eppendorph centrifuge for 3 minutes at room temperature. 100 μL of supernatant was read in a plate reader at λ=570 nm. FIG. 13 compares the effect of dihydroartemisinin (DHA) and ART-Phe-Sal on DAOY medulloblastoma cell line. The concentration of holo-Tf was 1.7 μM.
Compound,therapeutic index (toxicity towards cancer cells versus normal cells) (human leukemia cells),cell shrinkage under light microscope [1]
C[C@@H]1CC[C@H]2[C@@H](C)C(=O)O[C@@H]3O[C@@]4(C)CC[C@@H]1[C@]32OO4 [Artemisinin],approximately 100,–
"holo-Tf: Human holotransferrin (Sigma Chemicals), iron carrying protein added to the cells",–,Moderate cell shrinkage
